In the supplement of paper PMC4862054:

Legend:
Details in all cases: incubation time: 72 h
[1] = tested on: MDA-MB-468; experiment: normalised response (% of control), CellTiter-Glo; higher = more viable cells (100 = DMSO, 0 = benzethonium chloride kill control)
Summary of the method: (§1)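 Each value is the plate-normalised signal at one concentration of the series. Breast cancer cell lines (20 µl suspension) were incubated 72 h in 384-well plates with compound at 5 concentrations in 10-fold steps over a compound-specific 10,000-fold range. CellTox Green and then CellTiter-Glo were read, and each plate was scaled to 0.1 % DMSO (100) and a positive kill control (0).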

[2] = tested on: CAL-51; experiment: as above
Summary of the method: as §1

[3] = tested on: HDQ-P1; experiment: as above
Summary of the method: as §1

[4] = tested on: SK-BR-3; experiment: as above
Summary of the method: as §1

[5] = tested on: MCF-10A; experiment: as above
Summary of the method: as §1

[6] = tested on: HCC1599; experiment: as above
Summary of the method: as §1

[7] = tested on: DU-4475; experiment: as above
Summary of the method: as §1

[8] = tested on: BT-474; experiment: as above
Summary of the method: as §1

[9] = tested on: BT-549; experiment: as above
Summary of the method: as §1

[10] = tested on: MFM-223; experiment: as above
Summary of the method: as §1

[11] = tested on: Hs578T; experiment: as above
Summary of the method: as §1

[12] = tested on: CAL-120; experiment: as above
Summary of the method: as §1

[13] = tested on: CAL-85-1; experiment: as above
Summary of the method: as §1

[14] = tested on: MDA-MB-453; experiment: as above
Summary of the method: as §1

[15] = tested on: MDA-MB-231; experiment: as above
Summary of the method: as §1

[16] = tested on: HCC1937; experiment: as above
Summary of the method: as §1

[17] = tested on: HCC1143; experiment: as above
Summary of the method: as §1

[18] = tested on: CAL-148; experiment: as above
Summary of the method: as §1

[19] = tested on: MDA-MB-436; experiment: as above
Summary of the method: as §1

[20] = tested on: MDA-MB-468; experiment: normalised response (% of control), CellTox Green; higher = less cell death (100 = DMSO, 0 = benzethonium chloride kill control)
Summary of the method: as §1

[21] = tested on: CAL-51; experiment: as above
Summary of the method: as §1

[22] = tested on: HDQ-P1; experiment: as above
Summary of the method: as §1

[23] = tested on: MCF-10A; experiment: as above
Summary of the method: as §1

[24] = tested on: HCC1599; experiment: as above
Summary of the method: as §1

[25] = tested on: DU-4475; experiment: as above
Summary of the method: as §1

[26] = tested on: BT-474; experiment: as above
Summary of the method: as §1

[27] = tested on: BT-549; experiment: as above
Summary of the method: as §1

[28] = tested on: MFM-223; experiment: as above
Summary of the method: as §1

[29] = tested on: Hs578T; experiment: as above
Summary of the method: as §1

[30] = tested on: CAL-120; experiment: as above
Summary of the method: as §1

[31] = tested on: CAL-85-1; experiment: as above
Summary of the method: as §1

[32] = tested on: MDA-MB-453; experiment: as above
Summary of the method: as §1

[33] = tested on: MDA-MB-231; experiment: as above
Summary of the method: as §1

[34] = tested on: HCC1937; experiment: as above
Summary of the method: as §1

[35] = tested on: HCC1143; experiment: as above
Summary of the method: as §1

[36] = tested on: CAL-148; experiment: as above
Summary of the method: as §1

[37] = tested on: MDA-MB-436; experiment: as above
Summary of the method: as §1

Compound | normalised response [1] | normalised response [2] | normalised response [3] | normalised response [4] | normalised response [5] | normalised response [6] | normalised response [7] | normalised response [8] | normalised response [9] | normalised response [10] | normalised response [11] | normalised response [12] | normalised response [13] | normalised response [14] | normalised response [15] | normalised response [16] | normalised response [17] | normalised response [18] | normalised response [19] | normalised response [20] | normalised response [21] | normalised response [22] | normalised response [23] | normalised response [24] | normalised response [25] | normalised response [26] | normalised response [27] | normalised response [28] | normalised response [29] | normalised response [30] | normalised response [31] | normalised response [32] | normalised response [33] | normalised response [34] | normalised response [35] | normalised response [36] | normalised response [37]
CC1=C(/C=C/C(C)=C/C=C/C(C)=C/C(=O)O)C(C)(C)CCC1 [Tretinoin] (10000 nM) | 81% | 86.2% | 90% | 21.8% | 60.7% | 61.6% | 89.9% | 62.2% | 62.2% | 78.9% | 72.9% | 98.2% | 56.5% | 56.4% | 63.5% | 72.3% | 84.7% | 75% | 79.2% | 127% | 98.5% | 80.3% | 73.5% | 102% | 98% | 68.7% | 76.9% | 103% | 75.1% | 101% | 55.4% | 94.4% | 36.8% | 61.1% | 84.1% | 102% | 88.9%
COc1cc2c(NC3CCN(C(C)C)CC3)nc(C3CCCCC3)nc2cc1OCCCN1CCCC1 [UNC0638] (10000 nM) | 0.31% | 17% | 23.3% | 2.89% | 0.31% | 14% | 71.8% | 2.59% | 1.52% | 3.95% | 51.9% | 8.51% | 0.26% | 0.34% | 0.6% | 13.6% | 36.4% | 3.47% | 7.47% | -186% | -16.4% | 58.6% | -76.4% | 62.2% | 88.3% | -17.5% | 17% | 36.8% | 13.9% | -29.4% | -10.2% | -11.5% | -58.7% | -27% | 94.9% | 2.74% | 18.6%
Oc1ncc(N(CCCl)CCCl)c(O)n1 [Uracil mustard] (10000 nM) | 101% | 78.5% | 98.1% | 100% | 101% | 115% | 99.4% | 99.5% | 97.9% | 104% | 98.3% | 107% | 103% | 89.4% | 95.6% | 98.9% | 105% | 107% | 99.1% | 133% | 97.5% | 83.4% | 123% | 99.1% | 100% | 107% | 94.2% | 100% | 135% | 107% | 95.4% | 98% | 101% | 98.4% | 115% | 104% | 97.6%
CCCCC(=O)OCC(=O)[C@]1(O)Cc2c(O)c3c(c(O)c2[C@@H](O[C@H]2C[C@H](NC(=O)C(F)(F)F)[C@H](O)[C@H](C)O2)C1)C(=O)c1c(OC)cccc1C3=O [Valrubicin] (5000 nM) | 22.8% | 0.2% | 45.4% | 8.77% | 9.91% | 24.8% | 0.06% | 40.1% | 13.4% | 40.8% | 34.1% | 59.3% | 37% | 22.1% | 47.7% | 50.2% | 19.9% | 0.81% | 35.4% | 548% | 106% | 134% | 157% | 196% | 147% | 112% | 208% | 118% | 193% | 128% | 170% | 150% | 205% | 183% | 176% | 119% | 147%
